Where a SMILES comes first, the peptide text is derived from it. Bridges are numbered along the chain shown (N, C = ends). [ ]: non-standard residue; d: D form. The star is where a group is joined. Phe(3-CF3) = N[C@@H](Cc1cccc(C(F)(F)F)c1)C(=O)O; Ala(morpholin-4-yl) = N[C@@H](CN1CCOCC1)C(=O)O; Phe(4-COOH) = N[C@@H](Cc1ccc(C(=O)O)cc1)C(=O)O; Tyr(Ph) = N[C@@H](Cc1ccc(Oc2ccccc2)cc1)C(=O)O; Bip = N[C@@H](Cc1ccc(-c2ccccc2)cc1)C(=O)O; Phe(3-Cl) = N[C@@H](Cc1cccc(Cl)c1)C(=O)O; Phe(3-Me) = Cc1cccc(C[C@H](N)C(=O)O)c1; Cha = N[C@@H](CC1CCCCC1)C(=O)O; Cit = NC(=O)NCCC[C@H](N)C(=O)O; Gly(cPr) = N[C@H](C(=O)O)C1CC1; Carboxymethyl = O=C(O)C*; Nle = CCCC[C@H](N)C(=O)O; Orn = NCCC[C@H](N)C(=O)O; Dab = NCC[C@H](N)C(=O)O; Dap = NC[C@H](N)C(=O)O
These compounds were tested against T1, human PD-1 / PD-L1-Ig binding on Jurkat cell line over-expressing human PD-1 (Jurkat-PD-1) (Homo sapiens, UniProt Q15116) (assay: Jurkat-PD-1 Cell Binding High-Content Screening Assay (CBA)). Conditions: Jurkat-PD-1 cells, PE-labeled PD-L1-Ig 20 nM final; read-out: Jurkat HPD1_PDL1 IC50.
T1 construct: expressed in transfected cells; host or cells: Jurkat
T1 sequence (Q15116 25-288): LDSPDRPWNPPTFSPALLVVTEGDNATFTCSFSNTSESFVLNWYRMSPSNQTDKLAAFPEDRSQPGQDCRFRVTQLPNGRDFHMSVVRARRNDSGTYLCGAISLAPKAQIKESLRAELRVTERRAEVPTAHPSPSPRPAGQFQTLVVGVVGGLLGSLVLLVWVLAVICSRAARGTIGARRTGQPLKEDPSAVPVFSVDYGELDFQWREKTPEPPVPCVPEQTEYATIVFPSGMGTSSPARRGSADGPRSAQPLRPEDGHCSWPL
Format: cell-based
How it was run: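 Cell-bound PE-labeled PD-L1-Ig (20 nM final, 1 h) measured by high-content imaging after fixation and Hoechst 33342 counterstain. Compound was applied first for 2 h at 37° C. to Jurkat cells over-expressing human PD-1 in DMEM with 10% FCS.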

| IC50 [nM] | SMILES |
| --- | --- |
| 48.1 | Cc1cccc(C[C@@H]2NC(=O)[C@H](CC(N)=O)NC(=O)[C@H](Cc3ccc(OCC(=O)O)cc3)NC(=O)[C@H](CN3CCOCC3)NC(=O)CSC[C@@H](C(=O)N[C@@H](CCN)C(N)=O)NC(=O)[C@H](CCCN)NC(=O)[C@H](C(C)C)NC(=O)[C@H](CC3CCCCC3)NC(=O)[C@H](CCN)NC(=O)[C@@H](CC(C)C)NC(=O)[C@H](CCCN)NC(=O)[C@H](CCCN)NC(=O)[C@H](Cc3ccc(-c4ccccc4)cc3)NC(=O)[C@H](Cc3ccc(C(=O)O)cc3)NC2=O)c1 [Example 2725] ({CH2CO}-[Ala(morpholin-4-yl)]Y(Carboxymethyl)N[Phe(3-Me)][Phe(4-COOH)][Bip][Orn][Orn][dL][Dab][Cha]V[Orn]C[Dab]-NH2; thioether N-14) |
| 6.4 | CC[C@H](C)[C@@H]1NC(=O)[C@H](Cc2ccc(-c3ccccc3)cc2)NC(=O)[C@H](CC(C)C)NC(=O)[C@H](Cc2c[nH]c3ccccc23)NC(=O)[C@H](CC(=O)O)NC(=O)[C@H](Cc2ccc(OCC(=O)O)cc2)NC(=O)[C@H](CN)NC(=O)CSC[C@@H](C(=O)N[C@@H](C)C(N)=O)NC(=O)[C@H]([C@@H](C)O)NC(=O)[C@H](C(C)C)NC(=O)[C@H](CC(C)C)NC(=O)[C@H](CCN)NC(=O)[C@@H](CC(C)C)NC(=O)[C@H](CCCN)NC1=O [Compound 1370] ({CH2CO}-[Dap]Y(Carboxymethyl)DWL[Bip]I[Orn][dL][Dab]LVTCA-NH2; thioether N-14) |
| 48.9 | CC(C)C[C@H]1NC(=O)[C@H](CCCN)NC(=O)[C@H](C(C)C)NC(=O)[C@H](Cc2ccc(-c3ccccc3)cc2)NC(=O)[C@H](C(C)C)NC(=O)[C@H](Cc2c[nH]c3ccccc23)NC(=O)[C@H](CC(=O)O)NC(=O)[C@H](Cc2ccc(OCC(=O)O)cc2)NC(=O)[C@H](CN)NC(=O)CSC[C@@H](C(=O)N[C@@H](C)C(N)=O)NC(=O)[C@H]([C@@H](C)O)NC(=O)[C@H](C(C)C)NC(=O)[C@H](Cc2ccc(O)cc2)NC(=O)[C@H](CCN)NC1=O [Compound 1681] ({CH2CO}-[Dap]Y(Carboxymethyl)DWV[Bip]V[Orn][dL][Dab]YVTCA-NH2; thioether N-14) |
| 33 | CC(C)C[C@H]1NC(=O)[C@H](CCCN)NC(=O)[C@H](CCCNC(N)=O)NC(=O)[C@H](Cc2ccc(-c3ccccc3)cc2)NC(=O)[C@H](C(C)C)NC(=O)[C@H](Cc2c[nH]c3ccccc23)NC(=O)[C@H](CC(=O)O)NC(=O)[C@H](Cc2cccc(Cl)c2)NC(=O)[C@H](CN)NC(=O)CSC[C@@H](C(=O)N[C@@H](C)C(N)=O)NC(=O)[C@H]([C@@H](C)O)NC(=O)[C@H](C(C)C)NC(=O)[C@H](CC2CCCCC2)NC(=O)[C@H](CCN)NC1=O [Compound 2111] ({CH2CO}-[Dap][Phe(3-Cl)]DWV[Bip][Cit][Orn][dL][Dab][Cha]VTCA-NH2; thioether N-14) |
| 20.7 | CCCC[C@@H]1NC(=O)[C@H](CCN)NC(=O)[C@@H](CC(C)C)NC(=O)[C@H](CCCN)NC(=O)[C@H](C(C)C)NC(=O)[C@H](Cc2ccc(-c3ccccc3)cc2)NC(=O)[C@H](C(C)C)NC(=O)[C@H](Cc2c[nH]c3ccccc23)NC(=O)[C@H](CC(=O)O)NC(=O)[C@H](Cc2ccc(O)cc2)NC(=O)[C@H](CN)NC(=O)CSC[C@@H](C(=O)N[C@@H](C)C(N)=O)NC(=O)[C@H]([C@@H](C)O)NC(=O)[C@H](C(C)C)NC1=O [Compound 1169] ({CH2CO}-[Dap]YDWV[Bip]V[Orn][dL][Dab][Nle]VTCA-NH2; thioether N-14) |
| 16.1 | CC(C)C[C@H]1NC(=O)[C@H](CCCN)NC(=O)[C@H](CN)NC(=O)[C@H](Cc2ccc(-c3ccccc3)cc2)NC(=O)[C@H](C(C)C)NC(=O)[C@H](Cc2c[nH]c3ccccc23)NC(=O)[C@H](CC(=O)O)NC(=O)[C@H](Cc2ccc(C(=O)O)cc2)NC(=O)[C@H](Cc2ccc(OCC(=O)O)cc2)NC(=O)CSC[C@@H](C(=O)N[C@@H](C)C(N)=O)NC(=O)[C@H](CO)NC(=O)[C@H](C(C)C)NC(=O)[C@H](CC2CCCCC2)NC(=O)[C@H](CCN)NC1=O [Compound 2540] ({CH2CO}-Y(Carboxymethyl)[Phe(4-COOH)]DWV[Bip][Dap][Orn][dL][Dab][Cha]VSCA-NH2; thioether N-14) |
| 68.7 | CC(C)C[C@@H]1NC(=O)[C@H](Cc2c[nH]c3ccccc23)NC(=O)[C@H](CC(=O)O)NC(=O)[C@H](Cc2ccc(O)cc2)NC(=O)[C@H](Cc2ccccc2)NC(=O)CSC[C@@H](C(=O)N[C@@H](C)C(N)=O)NC(=O)[C@H]([C@@H](C)O)NC(=O)[C@H](C(C)C)NC(=O)[C@H](CC(C)C)NC(=O)[C@H](CC(N)=O)NC(=O)[C@@H](C)NC(=O)[C@H](CN)NC(=O)[C@H](C(C)C)NC(=O)[C@H](Cc2ccc(-c3ccccc3)cc2)NC1=O [Compound 1076] ({CH2CO}-FYDWL[Bip]V[Dap][dA]NLVTCA-NH2; thioether N-14) |
| 19.9 | CC(C)C[C@H]1NC(=O)[C@H](CCCN)NC(=O)[C@H](CCCNC(N)=O)NC(=O)[C@H](Cc2ccc(-c3ccccc3)cc2)NC(=O)[C@H](C2CC2)NC(=O)[C@H](Cc2c[nH]c3ccccc23)NC(=O)[C@H](CC(=O)O)NC(=O)[C@H](Cc2ccc(OCC(=O)O)cc2)NC(=O)[C@H](CN)NC(=O)CSC[C@@H](C(=O)N[C@@H](C)C(N)=O)NC(=O)[C@H]([C@@H](C)O)NC(=O)[C@H](C(C)C)NC(=O)[C@H](CC2CCCCC2)NC(=O)[C@H](CCN)NC1=O [Compound 1369] ({CH2CO}-[Dap]Y(Carboxymethyl)DW[Gly(cPr)][Bip][Cit][Orn][dL][Dab][Cha]VTCA-NH2; thioether N-14) |
| 478 | COc1ccc(C[C@@H]2NC(=O)[C@H](CC(=O)O)NC(=O)[C@H](Cc3ccc(OCC(=O)O)cc3)NC(=O)[C@H](CN)NC(=O)CSC[C@@H](C(=O)N[C@@H](C)C(N)=O)NC(=O)[C@H]([C@@H](C)O)NC(=O)[C@H](C(C)C)NC(=O)[C@H](CC3CCCCC3)NC(=O)[C@H](CCN)NC(=O)[C@@H](CC(C)C)NC(=O)[C@H](CCCN)NC(=O)[C@H](CCC(=O)O)NC(=O)[C@H](Cc3ccc(-c4ccccc4)cc3)NC(=O)[C@H](C(C)C)NC2=O)cc1 [Compound 2140] ({CH2CO}-[Dap]Y(Carboxymethyl)DY(Me)V[Bip]E[Orn][dL][Dab][Cha]VTCA-NH2; thioether N-14) |
| 94 | CC(C)C[C@H]1NC(=O)[C@H](CCCN)NC(=O)[C@H](Cc2ccc(C(=O)O)cc2)NC(=O)[C@H](Cc2ccc(-c3ccccc3)cc2)NC(=O)[C@H](Cc2ccc(Oc3ccccc3)cc2)NC(=O)[C@H](Cc2cccc(C(F)(F)F)c2)NC(=O)[C@H](CC(=O)O)NC(=O)[C@H](Cc2ccc(C(=O)O)cc2)NC(=O)[C@H](CN2CCOCC2)NC(=O)CSC[C@@H](C(=O)N[C@@H](CCN)C(N)=O)NC(=O)[C@H](CCC(=O)O)NC(=O)[C@H](C(C)C)NC(=O)[C@H](CC2CCCCC2)NC(=O)[C@H](CCN)NC1=O [Example 2730] ({CH2CO}-[Ala(morpholin-4-yl)][Phe(4-COOH)]D[Phe(3-CF3)][Tyr(Ph)][Bip][Phe(4-COOH)][Orn][dL][Dab][Cha]VEC[Dab]-NH2; thioether N-14) |

From patent US20250163104A1, “MACROCYCLIC IMMUNOMODULATORS” (priority 2021, published 2025)
